As a reminder, the IC50 is the point on the concentration scale where inhibition reaches its midpoint. Low readings indicate greater potency in that assay, high ones weaker potency in that assay.

Molecules are shown by their SMILES.

What all share (format): biochemical
For test [1], the target named is T1, MAO-A (Mus musculus, UniProt Q64133).
T1 construct: gene Maoa
T1 sequence (Q64133 1-526): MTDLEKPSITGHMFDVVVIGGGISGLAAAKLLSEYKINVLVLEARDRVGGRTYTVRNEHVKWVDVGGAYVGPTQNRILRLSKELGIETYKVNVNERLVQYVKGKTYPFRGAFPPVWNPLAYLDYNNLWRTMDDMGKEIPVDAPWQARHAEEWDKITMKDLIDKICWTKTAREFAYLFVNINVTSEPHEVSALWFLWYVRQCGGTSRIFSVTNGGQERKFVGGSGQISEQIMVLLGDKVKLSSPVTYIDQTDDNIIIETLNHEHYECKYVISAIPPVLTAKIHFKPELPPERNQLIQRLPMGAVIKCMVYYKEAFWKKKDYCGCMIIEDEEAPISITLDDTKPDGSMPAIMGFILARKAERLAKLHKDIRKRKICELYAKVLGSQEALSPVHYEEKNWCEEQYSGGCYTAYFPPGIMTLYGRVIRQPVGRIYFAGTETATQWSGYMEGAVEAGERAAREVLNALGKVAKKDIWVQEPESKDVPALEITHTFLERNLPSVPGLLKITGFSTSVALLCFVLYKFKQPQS
Put plainly: fluorescent kynuramine MAO activity assay in crude mouse brain mitochondria.

For test [2], the target named is T2, MAO-B (Mus musculus, UniProt Q8BW75).
T2 construct: gene Maob
T2 sequence (Q8BW75 2-520): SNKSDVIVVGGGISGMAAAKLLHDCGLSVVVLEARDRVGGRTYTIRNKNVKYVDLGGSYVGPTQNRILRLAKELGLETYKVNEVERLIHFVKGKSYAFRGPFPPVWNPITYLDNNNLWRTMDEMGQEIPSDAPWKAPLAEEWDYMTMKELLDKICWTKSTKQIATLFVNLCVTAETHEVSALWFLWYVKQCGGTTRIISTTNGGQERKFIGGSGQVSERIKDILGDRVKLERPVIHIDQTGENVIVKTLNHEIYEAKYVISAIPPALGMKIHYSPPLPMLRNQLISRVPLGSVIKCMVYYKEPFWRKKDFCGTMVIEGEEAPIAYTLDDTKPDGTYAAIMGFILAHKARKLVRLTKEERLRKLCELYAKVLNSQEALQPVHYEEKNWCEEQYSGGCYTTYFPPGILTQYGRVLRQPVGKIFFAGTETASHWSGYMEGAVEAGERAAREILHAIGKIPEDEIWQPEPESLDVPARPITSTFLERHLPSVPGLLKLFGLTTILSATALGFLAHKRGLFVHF
Put plainly: residual MAO-B activity at […], fluorescent kynuramine assay in crude mouse brain mitochondria. The following applies: read-out: MAO-B, % ± SD.

For test [3], the target named is T1, MAO-A. Nature of the test: residual MAO-A activity at […], fluorescent kynuramine assay in crude mouse brain mitochondria. To be noted: read-out: MAO-A, % ± SD.
Test [4] deals with T2, MAO-B. Put plainly: fluorescent kynuramine MAO activity assay in crude mouse brain mitochondria.

In test [1], `C=C(CNc1ccc(C)cc1C)[C@@H]1CC=C(C)[C@@H](O)[C@@H]1O` [compound 28, (1R,2R,6S)-6-(3-(2,4-Dimethylphenylamino)prop-1-en-2-yl)-3-methylcyclohex-3-ene-1,2-diol] came in with an IC50 of 178 ± 44 µM.

Consider `C=C(CNc1ccc(C)cc1)[C@@H]1CC=C(C)[C@@H](O)[C@@H]1O` [compound 27, (1R,2R,6S)-3-Methyl-6-(3-(p-tolylamino)prop-1-en-2-yl)cyclohex-3-ene-1,2-diol], for which the activity at 100 µM in test [2] amounted to 66 ± 0.1%.

Take `C=C(CNc1ccccc1C(C)=O)[C@@H]1CC=C(C)[C@@H](O)[C@@H]1O` [compound 30, 1-(2-(2-((1S,5R,6R)-5,6-Dihydroxy-4-methylcyclohex-3-enyl)allylamino)phenyl)ethanone]: in test [3], the activity at 100 µM came to 57 ± 1%. Further, inhibition in test [4] was half-maximal at 95 ± 5 µM (IC50).

As for `C=C(CNc1cccc(C(C)=O)c1)[C@@H]1CC=C(C)[C@@H](O)[C@@H]1O` [compound 31, 1-(3-(2-((1S,5R,6R)-5,6-Dihydroxy-4-methylcyclohex-3-enyl)allylamino)phenyl)ethanone], the activity at 100 µM in test [2] is 66 ± 2%.

In test [1], `C#CCN(C)CCCOc1ccc(Cl)cc1Cl` [clorgiline, reference compound] came in with a 50% inhibitory concentration (IC50) of 0.00136 µM.

Source of the values: paper PMC11720030, “Inhibitory Activity of N- and S-Functionalized Monoterpene Diols Towards Monoamine Oxidases A and B” (International Journal of Molecular Sciences, 2024).
